In patent US12599136B2, “Substituted isophthalic acid diamides and their use as herbicides” (Bayer Aktiengesellschaft, priority 2020, dated 2026):

How the values were obtained:
Assay type in all cases: in vivo
Hordeum murinum = test: Pre-emergence herbicidal action against HORMU; details: 320 g/ha; visual score after 3 weeks vs untreated controls
Outline: (§1)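 Sandy loam pots, seeds covered with soil, then surface-treated with WP or EC formulations at 600–800 l/ha water plus 0.2% wetting agent. Greenhouse, 3 weeks. Percent damage vs untreated controls.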

Echinochloa crus-galli [1] = test: Pre-emergence herbicidal action against ECHCG; details: visual score after 3 weeks vs untreated controls
Outline: as §1

Cyperus esculentus = test: Pre-emergence herbicidal action against CYPES; details: visual score after 3 weeks vs untreated controls
Outline: as §1

Stellaria media [2] = test: Post-emergence herbicidal action against STEME; details: visual assessment about 3 weeks after treatment
Outline: (§2)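 Herbicidal action is a visual percentage rating (0% = as untreated control, 100% = plants dead) made roughly 3 weeks after treatment. Plants were grown in sandy loam in the greenhouse and treated at the one-leaf stage, 2 to 3 weeks post-sowing. Treatment was a foliar spray of wettable-powder or emulsion-concentrate formulations at 600 to 800 l/ha water plus 0.2% wetting agent.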

Setaria viridis [3] = test: Post-emergence herbicidal action against SETVI; details: 80 g/ha, visual assessment about 3 weeks after treatment
Outline: as §2

Polygonum convolvulus [4] = test: Pre-emergence herbicidal action against POLCO
Outline: as §1

Avena fatua [5] = test: Pre-emergence herbicidal action against AVEFA; details: visual score after 3 weeks vs untreated controls
Outline: as §1

Matricaria inodora [6] = test: Post-emergence herbicidal action against MATIN; details: visual assessment about 3 weeks after treatment
Outline: as §2

Veronica persica [7] = test: Pre-emergence herbicidal action against VERPE; details: 320 g/ha
Outline: as §1

Alopecurus myosuroides [8] = test: Post-emergence herbicidal action against ALOMY; details: 80 g/ha
Outline: as §2

Setaria viridis [9] = test: Pre-emergence herbicidal action against SETVI
Outline: as §1

Stellaria media [10] = test: Pre-emergence herbicidal action against STEME
Outline: as §1

Abutilon theophrasti [11] = test: Post-emergence herbicidal action against ABUTH
Outline: as §2

Amaranthus retroflexus [12] = test: Pre-emergence herbicidal action against AMARE; details: visual score after 3 weeks vs untreated controls
Outline: as §1

Matricaria inodora [13] = test: Pre-emergence herbicidal action against MATIN; details: visual score after 3 weeks vs untreated controls
Outline: as §1

Avena fatua [14] = test: Post-emergence herbicidal action against AVEFA; details: visual assessment about 3 weeks after treatment
Outline: as §2

Lolium rigidum [15] = test: Pre-emergence herbicidal action against LOLRI
Outline: as §1

Pharbitis purpurea [16] = test: Pre-emergence herbicidal action against PHBPU; details: 320 g/ha; visual score after 3 weeks vs untreated controls
Outline: as §1

Pharbitis purpurea [17] = test: Post-emergence herbicidal action against PHBPU; details: visual assessment about 3 weeks after treatment
Outline: as §2

Veronica persica [18] = test: Post-emergence herbicidal action against VERPE; details: 80 g/ha, visual assessment about 3 weeks after treatment
Outline: as §2

Alopecurus myosuroides [19] = test: Pre-emergence herbicidal action against ALOMY; details: 320 g/ha; visual score after 3 weeks vs untreated controls
Outline: as §1

Viola tricolor [20] = test: Post-emergence herbicidal action against VIOTR
Outline: as §2

Polygonum convolvulus [21] = test: Post-emergence herbicidal action against POLCO; details: visual assessment about 3 weeks after treatment
Outline: as §2

Abutilon theophrasti [22] = test: Pre-emergence herbicidal action against ABUTH; details: visual score after 3 weeks vs untreated controls
Outline: as §1

Lolium rigidum [23] = test: Post-emergence herbicidal action against LOLRI; details: 80 g/ha
Experimental: Seeds of monocotyledonous and dicotyledonous weed and crop plants are laid out in sandy loam soil in wood-fiber pots, covered with soil and cultivated in a greenhouse under good growth conditions. 2 to 3 weeks after sowing, the test plants are treated at the one-leaf stage. The compounds of the invention, formulated in the form of wettable powders (WP) or as emulsion concentrates (EC), are then sprayed onto the green parts of the plants in the form of an aqueous suspension or emulsion at a water application rate equivalent to 600 to 800 l/ha, with addition of 0.2% wetting agent. After the test plants have been left to stand in the greenhouse under optimal growth conditions for about 3 weeks, the action of the preparations is assessed visually in comparison to untreated controls (herbicidal action in percent (%): 100% activity=the plants have died, 0% activity=like control plants). […] The tables below illustrate, in an illustrative manner, the post-emergence herbicidal action of the compounds of the invention, the herbicidal activity being stated in percent.

Viola tricolor [24] = test: Pre-emergence herbicidal action against VIOTR
Outline: as §1

Echinochloa crus-galli [25] = test: Post-emergence herbicidal action against ECHCG; details: visual assessment about 3 weeks after treatment
Outline: as §2

Amaranthus retroflexus [26] = test: Post-emergence herbicidal action against AMARE; details: visual assessment about 3 weeks after treatment
Outline: as §2

CCn1nnnc1NC(=O)c1ccc(C(F)(F)F)c(C(=O)n2cccn2)c1Cl [Example 2-153]
80%: Pre-emergence action against POLCO (Polygonum convolvulus [4]; 80 g/ha) | Post-emergence action against ABUTH (Abutilon theophrasti [11]; 5 g/ha) | Pre-emergence action against LOLRI (Lolium rigidum [15]; 80 g/ha) | Post-emergence action against PHBPU in % (Pharbitis purpurea [17]; 20 g/ha) | Post-emergence action against VERPE in % (Veronica persica [18]) | Post-emergence action against LOLRI in % (Lolium rigidum [23]) | Post-emergence action against ECHCG in % (Echinochloa crus-galli [25]; 5 g/ha) | Post-emergence action against ECHCG in % (Echinochloa crus-galli [25]; 20 g/ha)
90%: Pre-emergence action against HORMU (Hordeum murinum) | Post-emergence action against MATIN in % (Matricaria inodora [6]; 5 g/ha) | Pre-emergence action against VERPE (Veronica persica [7]) | Post-emergence action against ALOMY (Alopecurus myosuroides [8]) | Pre-emergence action against SETVI (Setaria viridis [9]; 20 g/ha) | Pre-emergence action against STEME (Stellaria media [10]; 20 g/ha) | Post-emergence action against ABUTH (Abutilon theophrasti [11]; 20 g/ha) | Post-emergence action against AVEFA in % (Avena fatua [14]; 20 g/ha) | Pre-emergence action against LOLRI (Lolium rigidum [15]; 320 g/ha) | Post-emergence action against PHBPU in % (Pharbitis purpurea [17]; 80 g/ha) | Pre-emergence action against ALOMY (Alopecurus myosuroides [19]) | Post-emergence action against VIOTR in % (Viola tricolor [20]; 5 g/ha) | Post-emergence action against VIOTR in % (Viola tricolor [20]; 20 g/ha) | Post-emergence action against POLCO in % (Polygonum convolvulus [21]; 20 g/ha) | Post-emergence action against ECHCG in % (Echinochloa crus-galli [25]; 80 g/ha)
100%: Pre-emergence action against ECHCG (Echinochloa crus-galli [1]; 80 g/ha) | Pre-emergence action against ECHCG (Echinochloa crus-galli [1]; 320 g/ha) | Pre-emergence action against CYPES (Cyperus esculentus; 80 g/ha) | Pre-emergence action against CYPES (Cyperus esculentus; 320 g/ha) | Post-emergence action against STEME in % (Stellaria media [2]; 5 g/ha) | Post-emergence action against STEME in % (Stellaria media [2]; 20 g/ha) | Post-emergence action against STEME in % (Stellaria media [2]; 80 g/ha) | Post-emergence action against SETVI in % (Setaria viridis [3]) | Pre-emergence action against POLCO (Polygonum convolvulus [4]; 320 g/ha) | Pre-emergence action against AVEFA (Avena fatua [5]; 80 g/ha) | Pre-emergence action against AVEFA (Avena fatua [5]; 320 g/ha) | Post-emergence action against MATIN in % (Matricaria inodora [6]; 20 g/ha) | Post-emergence action against MATIN in % (Matricaria inodora [6]; 80 g/ha) | Pre-emergence action against SETVI (Setaria viridis [9]; 80 g/ha) | Pre-emergence action against SETVI (Setaria viridis [9]; 320 g/ha) | Pre-emergence action against STEME (Stellaria media [10]; 80 g/ha) | Pre-emergence action against STEME (Stellaria media [10]; 320 g/ha) | Post-emergence action against ABUTH (Abutilon theophrasti [11]; 80 g/ha) | Pre-emergence action against AMARE (Amaranthus retroflexus [12]; 20 g/ha) | Pre-emergence action against AMARE (Amaranthus retroflexus [12]; 80 g/ha) | Pre-emergence action against AMARE (Amaranthus retroflexus [12]; 320 g/ha) | Pre-emergence action against MATIN (Matricaria inodora [13]; 20 g/ha) | Pre-emergence action against MATIN (Matricaria inodora [13]; 80 g/ha) | Pre-emergence action against MATIN (Matricaria inodora [13]; 320 g/ha) | Post-emergence action against AVEFA in % (Avena fatua [14]; 80 g/ha) | Pre-emergence action against PHBPU (Pharbitis purpurea [16]) | Post-emergence action against VIOTR in % (Viola tricolor [20]; 80 g/ha) | Post-emergence action against POLCO in % (Polygonum convolvulus [21]; 80 g/ha) | Pre-emergence action against ABUTH (Abutilon theophrasti [22]; 20 g/ha) | Pre-emergence action against ABUTH (Abutilon theophrasti [22]; 80 g/ha) | Pre-emergence action against ABUTH (Abutilon theophrasti [22]; Dosage column 320 g/ha (heading prints 3200 g/ha)) | Pre-emergence action against VIOTR (Viola tricolor [24]; 80 g/ha) | Pre-emergence action against VIOTR (Viola tricolor [24]; 320 g/ha) | Post-emergence action against AMARE in % (Amaranthus retroflexus [26]; 5 g/ha) | Post-emergence action against AMARE in % (Amaranthus retroflexus [26]; 20 g/ha) | Post-emergence action against AMARE in % (Amaranthus retroflexus [26]; 80 g/ha)
